Measurements taken from patent publication US9677109B2, “Rapid determination of microbial growth and antimicrobial susceptibility” (priority 2013, dated 2017).

How the values were obtained:
Type in all cases: cell-based
[1] = system: Staphylococcus aureus (SA); experiment: MADM clone growth in antibiotic agar, simulated blood specimens; settings: SA in 6 μg/mL FOX, FIG. 10B, three hours
Experimental: The MADM system used a custom microscope and pipetting robot, plus an evaluation system, as described herein. 32-channel disposable cassettes (FIG. 4A) enabled live microorganism immobilization for microscopy and fluid exchanges for different test agents. The microscope scanned 40 image fields in each flowcell channel, each channel having organisms extracted from about 3.5 μL of prepared inoculum.
Simulated blood specimens consisted of isolates spiked into 10 mL each of 29 aliquots of two short-fill CPD blood bank bags to make approximately 5 CFU/mL of bacterial target species, confirmed by quantitative culture. Spiked isolates included 14 Staphylococcus aureus (SA), 3 Pseudomonas aeruginosa (PA), or 12 non-target Gram-negative bacilli species. Dilution of each sample with 30 mL of modified TSB culture medium promoted growth. 20 additional control aliquots contained no spikes. 4-hour incubation at 35° C., followed with brief spin cleanup, ended with pellet resuspension into an electrokinetic buffer to make 1 mL samples for MADM system analysis. 20 μL sample aliquots were then pipetted into 14 cassette flowcells. A 5-minute low-voltage electrokinetic capture was performed to concentrate microorganisms on the lower surface of each flowcell where a capture coating immobilized the bacterial cells. […]

Enteric = experiment: MADM (BACcel) growth analysis sensitivity, surveillance mini-BAL; settings: specimen 005-D7, BACcel ID Enteric, 1.26 × 10^5 CFU/ml
Experimental: (§1) Adult MICU patients with identified surrogate were included within 72 hours of intubation and if anticipated to require MV for >48 h. Moribund state or pregnancy were exclusions. Surveillance mini-BAL (Combicath, Plastimed) was performed on Day 1, 3, 5, 7 and 10 of MV. Samples were split and processed for both a) routine respiratory quantitative microbiological culture and sensitivity assays (>48 h result availability) and b) rapid (<8 h) flowcell/surface-capture assays using the MADM system. Viable microorganisms were identified using growth analysis enhanced by a focused VAP antibody panel (S. aureus, P. aeruginosa, A. baumannii). Untypable organisms were also reported. Sensitivity was assessed using growth analysis. Attending physicians were blinded to MADM system results.
(§2) BAL sample were prepared, removing debris and separating microorganisms from other sample material. Sample microorganisms were introduced into a multichannel fluidic cassette as described elsewhere herein. Bacteria were concentrated and retained on the lower surface of all flowcells using low-voltage electrical field (5 min). Antibody labeling of bacteria in flowcells was used to aid identification.
(§3) The automated digital microscopy system was used to perform darkfield imaging of 10 fields of view every 10 minutes for 180 minutes in each flowcell channel. Initial epifluorescence imaging was also performed for antibody detection. […] Identification consisted of probability scores based on microorganism morphology and growth rates. Antibody labeling identification data was also incorporated. Observed microorganisms were then classified as STAU, PSAE, or non-target. Antibiotic responses were used to aid identification when appropriate. Quantitation was performed by counting identified microorganism and computing original specimen CFU/mL.

S. maltophilia (Steno) = experiment: as above
Experimental: as §1, §2, §3

S. aureus (STAU) = experiment: as above; settings: specimen 008-D7, BACcel ID STAU, 1.11 × 10^6 CFU/ml
Experimental: as §1, §2, §3

[2] = system: Staphylococcus aureus (STAU); experiment: MADM resistance phenotype test, respiratory specimens
Experimental: (ABCC). Concurrent quantitative culture (qCx) was performed on specimens.
20 μL samples of prepared specimen were pipetted into independent flowcell channels and a low-voltage electrical field was applied for 5 minutes. The electrical field concentrated bacteria onto a functional surface coating that immobilized the bacteria on the lower flowcell surface. Each flowcell channel received only one type of test reagent solution that contained a selective agent if required (only for channels used to test AB, sulbactam 32 μg/mL).
The instrument acquired images at 10-minutes intervals for 180 minutes, using 10 fields of view in each flowcell channel through a 20× objective. Imaging used darkfield illumination. Identification variables included response to selective agents (AB with sulbactam), cell morphology, growth morphology, and growth rate.
Identification algorithms applied to each individual immobilized bacterial cell. The system measured the amount of change in mass over time to compute growth rates. Identification consisted of computing and combining probability scores for morphology, response to selective media, and growth rates to produce a receiver operating characteristic curve (ROC) to derive classification criteria.

CO[C@@]1(NC(=O)Cc2cccs2)C(=O)N2C(C(=O)O)=C(COC(N)=O)CS[C@@H]21 [FOX, cefoxitin]
Clone growth [1]: growth indicating MRSA phenotype | Phenotype, sensitivity (Enteric): all growth | Phenotype, sensitivity (S. maltophilia (Steno); specimen 006-D1, BACcel ID Steno, 7.68 × 10^5 CFU/ml): growth, TZP- | Phenotype, sensitivity (S. maltophilia (Steno); specimen 006-D3, BACcel ID Steno, 1.60 × 10^4 CFU/ml): growth, TZP- | Phenotype, sensitivity (S. aureus (STAU)): FOX-R | MADM resistance phenotype ([2]; specimen DH 425, Mini-BAL): R | MADM resistance phenotype ([2]; specimen DH 427, Mini-BAL): S | MADM resistance phenotype ([2]; specimen DH 439, Mini-BAL): R | MADM resistance phenotype ([2]; specimen DH 440, BAL): S | MADM resistance phenotype ([2]; specimen DH 457, BAL): S | MADM resistance phenotype ([2]; specimen DH 485, BAL): S | MADM resistance phenotype ([2]; specimen DH 509, BAL): S | MADM resistance phenotype ([2]; specimen DH 514, Mini-BAL): S | MADM resistance phenotype ([2]; specimen DH 543, BAL): S | MADM resistance phenotype ([2]; specimen DH 550, BAL): S | MADM resistance phenotype ([2]; specimen DH 556, Mini-BAL): S | MADM resistance phenotype ([2]; specimen T12, ETA): R
